Columns and labels:
Format in all cases: biochemical
JAK2 = JAK2 (Homo sapiens (Human), UniProt O60674); assay: In vitro JAK kinase assay (TR-FRET), JAK2; conditions: catalytic domain aa 826-1132, GST-fusion; ATP 0.2 μM; peptide 20 nM; 30 minutes at room temperature
In short: (§1)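 Each human JAK enzyme assayed on biotinylated poly(GT) peptide substrate, reaction 30 min at room temperature. Phosphorylation detected by TR-FRET after a 3 h detection incubation.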

JAK3 = JAK3 (Homo sapiens (Human), UniProt P52333); assay: In vitro JAK kinase assay (TR-FRET), JAK3; conditions: catalytic domain aa 795-1124, GST-fusion; ATP 0.6 μM; peptide 140 nM; 30 minutes at room temperature
Chain of JAK3 (P52333 795-1124): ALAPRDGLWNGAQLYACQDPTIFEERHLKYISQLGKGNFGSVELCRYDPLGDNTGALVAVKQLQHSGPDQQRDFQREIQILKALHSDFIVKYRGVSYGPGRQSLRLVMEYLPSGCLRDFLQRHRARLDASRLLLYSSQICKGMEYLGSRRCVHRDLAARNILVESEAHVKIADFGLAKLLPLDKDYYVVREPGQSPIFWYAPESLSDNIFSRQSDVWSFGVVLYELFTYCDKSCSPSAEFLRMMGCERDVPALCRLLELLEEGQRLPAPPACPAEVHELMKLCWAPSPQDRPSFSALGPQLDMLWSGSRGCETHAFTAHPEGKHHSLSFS
In short: as §1

JAK1 = JAK1 (Homo sapiens (Human), UniProt P23458); assay: In vitro JAK kinase assay (TR-FRET), JAK1; conditions: catalytic domain aa 850-1154, GST-fusion; ATP 3 μM; peptide 60 nM; 30 minutes at room temperature
Chain of JAK1 (P23458 850-1154): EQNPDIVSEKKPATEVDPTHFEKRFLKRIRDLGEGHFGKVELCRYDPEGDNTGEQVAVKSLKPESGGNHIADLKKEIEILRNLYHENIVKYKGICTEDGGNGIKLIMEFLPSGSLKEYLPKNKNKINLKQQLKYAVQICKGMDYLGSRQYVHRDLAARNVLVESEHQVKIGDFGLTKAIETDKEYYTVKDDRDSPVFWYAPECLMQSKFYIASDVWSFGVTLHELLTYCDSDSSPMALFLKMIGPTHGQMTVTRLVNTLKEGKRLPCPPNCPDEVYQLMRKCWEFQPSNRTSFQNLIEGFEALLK
In short: as §1

Chain of JAK2 (O60674 826-1132): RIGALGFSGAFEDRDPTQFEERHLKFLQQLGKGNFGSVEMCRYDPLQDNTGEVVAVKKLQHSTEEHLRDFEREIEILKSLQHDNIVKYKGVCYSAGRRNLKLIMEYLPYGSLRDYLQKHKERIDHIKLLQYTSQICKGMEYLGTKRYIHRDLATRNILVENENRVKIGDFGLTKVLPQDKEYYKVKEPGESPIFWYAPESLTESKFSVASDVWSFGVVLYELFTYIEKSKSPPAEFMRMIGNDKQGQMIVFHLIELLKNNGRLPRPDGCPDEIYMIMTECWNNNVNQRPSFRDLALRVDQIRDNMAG

Structure (SMILES) | IC50 (JAK2) [nM] | IC50 (JAK3) [nM] | IC50 (JAK1) [nM]
N#Cc1cnc(N2CCC[C@@H](Nc3nc(-c4cnn5ccccc45)nc(OCCO)c3F)C2)nc1 [Example 57, 2-((3R)-3-{[5-fluoro-6-(2-hydroxyethoxy)-2-pyrazolo[1,5-a]pyridin-3-ylpyrimidin-4-yl]amino}piperidin-1-yl)pyrimidine-5-carbonitrile] | 2 | 2 | 19
Cc1ncc(-c2nc(-c3cnn4ccccc34)nc(N[C@@H]3CCCN(C(=O)CO)C3)c2F)cn1 [Example 82, 2-{(3R)-3-[(5-Fluoro-2′-methyl-2-pyrazolo[1,5-a]pyridin-3-yl-4,5′-bipyrimidin-6-yl)amino]piperidin-1-yl}-2-oxoethanol] | 2 | 8 | 9
COCCOc1nc(-c2cnn3ccccc23)nc(N[C@@H]2CCCN(C(=O)CO)C2)c1C [Example 27, 2-((3R)-3-{[6-(2-Methoxyethoxy)-5-methyl-2-pyrazolo[1,5-a]pyridin-3-ylpyrimidin-4-yl]amino}piperidin-1-yl)-2-oxoethanol] | 0.7 | 3 | 19
Cc1cc(-c2nc(-c3cnn4ccccc34)nc(N[C@@H]3CCCN(C(=O)CO)C3)c2F)ccn1 [Example 34, 2-((3R)-3-{[5-Fluoro-6-(2-methylpyridin-4-yl)-2-pyrazolo[1,5-a]pyridin-3-ylpyrimidin-4-yl]amino}piperidin-1-yl)-2-oxoethanol] | 0.2 | 4 | 2
N#CCC(=O)N1CCC[C@@H](Oc2nc(-c3cnn4ccccc34)nc(-c3ccnc(CO)c3)c2F)C1 [Example 73, 3-[(3R)-3-({5-Fluoro-6-[2-(hydroxymethyl)pyridin-4-yl]-2-pyrazolo[1,5-a]pyridin-3-ylpyrimidin-4-yl}oxy)piperidin-1-yl]-3-oxopropanenitrile] | 2 | 27 | 13
Cc1cc(-c2nc(-c3cnn4ccccc34)nc(N[C@@H]3CCCN(C(=O)CC#N)C3)c2F)ccn1 [Example 20, 3-((3R)-3-{[5-fluoro-6-(2-methylpyridin-4-yl)-2-pyrazolo[1,5-a]pyridin-3-ylpyrimidin-4-yl]amino}piperidin-1-yl)-3-oxopropanenitrile] | 0.5 | 1 | 1
COC[C@@H](C)Oc1nc(-c2cnn3ccccc23)nc(N[C@@H]2CCCN(C(=O)CO)C2)c1F [Example 60, 2-[(3R)-3-({5-Fluoro-6-[(1R)-2-methoxy-1-methylethoxy]-2-pyrazolo[1,5-a]pyridin-3-ylpyrimidin-4-yl}amino)piperidin-1-yl]-2-oxoethanol] | 7 | 16 | 110
N#CCC(=O)N1CCC[C@@H](Nc2nc(-c3cnn4ccccc34)nc(OCCO)c2F)C1 [Example 14, 3-((3R)-3-{[5-fluoro-6-(2-hydroxyethoxy)-2-pyrazolo[1,5-a]pyridin-3-ylpyrimidin-4-yl]amino}piperidin-1-yl)-3-oxopropanenitrile] | 0.5 | 1 | 1
Cc1cc(-c2nc(-c3cnn4ccccc34)nc(N(C)[C@@H]3CCCN(C(=O)CC#N)C3)c2F)ccn1 [Example 21, 3-{(3R)-3-[[5-fluoro-6-(2-methylpyridin-4-yl)-2-pyrazolo[1,5-a]pyridin-3-ylpyrimidin-4-yl](methyl)amino]piperidin-1-yl}-3-oxopropanenitrile] | 1 | 11 | 6
N#CCC(=O)N1CCC[C@@H](Nc2nc(-c3cnn4ccccc34)nc(N3CCC(C(=O)O)CC3)c2F)C1 [Example 31, 1-(6-{[(3R)-1-(Cyanoacetyl)piperidin-3-yl]amino}-5-fluoro-2-pyrazolo[1,5-a]pyridin-3-ylpyrimidin-4-yl)piperidine-4-carboxylic acid] | 0.4 | 2 | 1
N#CC[C@H]1CC[C@H](Nc2nc(-c3cnn4ccccc34)nc(OC[C@H](O)CO)c2F)CC1 [Example 7, {Trans-4-[(6-{[(2R)-2,3-dihydroxypropyl]oxy}-5-fluoro-2-pyrazolo[1,5-a]pyridin-3-ylpyrimidin-4-yl)amino]cyclohexyl}acetonitrile] | 0.5 | 2 | 10
CN1CCN(c2nc(-c3cnn4ccccc34)nc(N[C@@H]3CCCN(C(=O)CO)C3)c2F)CC1 [Example 25, 2-((3R)-3-{[5-fluoro-6-(4-methylpiperazin-1-yl)-2-pyrazolo[1,5-a]pyridin-3-ylpyrimidin-4-yl]amino}piperidin-1-yl)-2-oxoethanol] | 0.6 | 2 | 22
O=C(COc1nc(-c2cnn3ccccc23)nc(N[C@@H]2CCCN(C(=O)CO)C2)c1F)OCc1ccccc1 [Example 44, Benzyl[(5-fluoro-6-{[(3R)-1-glycoloylpiperidin-3-yl]amino}-2-pyrazolo[1,5-a]pyridin-3-ylpyrimidin-4-yl)oxy]acetate] | 74 | 140 | 970
O=C(CO)N1CCC[C@@H](Oc2nc(-c3cnn4ccccc34)nc(-c3ccnc(CO)c3)c2F)C1 [Example 74, 2-[(3R)-3-({5-Fluoro-6-[2-(hydroxymethyl)pyridin-4-yl]-2-pyrazolo[1,5-a]pyridin-3-ylpyrimidin-4-yl}oxy)piperidin-1-yl]-2-oxoethanol] | 1 | 4 | 3
C[C@H](Nc1nc(-c2cnn3ccccc23)nc(N2CCC(N)CC2)c1F)c1ccc(F)cn1 [Example 11, 6-(4-Aminopiperidin-1-yl)-5-fluoro-N-[(1S)-1-(5-fluoropyridin-2-yl)ethyl]-2-pyrazolo[1,5-a]pyridin-3-ylpyrimidin-4-amine] | 1 | 3 | 40
N#CCC(=O)N1CCC[C@@H](Nc2nc(-c3cnn4ccccc34)nc(-c3ccc(CO)cc3)c2F)C1 [Example 17, 3-[(3R)-3-({5-Fluoro-6-[4-(hydroxymethyl)phenyl]-2-pyrazolo[1,5-a]pyridin-3-ylpyrimidin-4-yl}amino)piperidin-1-yl]-3-oxopropanenitrile] | 0.6 | 1 | 2
N#CCC(=O)N1CCC[C@@H](Nc2nc(-c3cnn4ccccc34)nc(-c3cncc(CO)c3)c2F)C1 [Example 89, 3-[(3R)-3-({5-Fluoro-6-[5-(hydroxymethyl)pyridin-3-yl]-2-pyrazolo[1,5-a]pyridin-3-ylpyrimidin-4-yl}amino)piperidin-1-yl]-3-oxopropanenitrile] | 1 | 3 | 5
O=C(CO)N1CCC[C@@H](Nc2nc(-c3cnn4ccccc34)nc(OCCO)c2F)C1 [Example 40, 2-((3R)-3-{[5-Fluoro-6-(2-hydroxyethoxy)-2-pyrazolo[1,5-a]pyridin-3-ylpyrimidin-4-yl]amino}piperidin-1-yl)-2-oxoethanol] | 0.8 | 2 | 4
Cc1cc(-c2nc(-c3cnn4ccccc34)nc(O[C@@H]3CCCN(C(=O)CO)C3)c2F)ccn1 [Example 71, 2-((3R)-3-{[5-Fluoro-6-(2-methylpyridin-4-yl)-2-pyrazolo[1,5-a]pyridin-3-ylpyrimidin-4-yl]oxy}piperidin-1-yl)-2-oxoethanol] | 2 | 26 | 35
Cc1c(N[C@@H]2CCCN(C(=O)CO)C2)nc(-c2cnn3ccccc23)nc1N1CCOCC1 [Example 26, 2-{(3R)-3-[(5-Methyl-6-morpholin-4-yl-2-pyrazolo[1,5-a]pyridin-3-ylpyrimidin-4-yl)amino]piperidin-1-yl}-2-oxoethanol] | 4 | 30 | 26
CC(C)OC(=O)c1nc(-c2cnn3ccccc23)nc(N[C@@H]2CCCN(C(=O)CO)C2)c1F [Example 92, Isopropyl 5-fluoro-6-{[(3R)-1-glycoloylpiperidin-3-yl]amino}-2-pyrazolo[1,5-a]pyridin-3-ylpyrimidine-4-carboxylate] | 1 | 4 | 12
CC(C)(O)Cn1cc(-c2nc(-c3cnn4ccccc34)nc(N[C@@H]3CCCN(C(=O)CO)C3)c2F)cn1 [Example 33, 1-[4-(5-Fluoro-6-{[(3R)-1-glycoloylpiperidin-3-yl]amino}-2-pyrazolo[1,5-a]pyridin-3-ylpyrimidin-4-yl)-1H-pyrazol-1-yl]-2-methylpropan-2-ol] | 0.6 | 2 | 6
Cc1cc(-c2cc(N[C@@H]3CCCN(C(=O)CO)C3)nc(-c3cnn4ccccc34)n2)cc(C)n1 [Example 101, 2-((3R)-3-{[6-(2,6-Dimethylpyridin-4-yl)-2-pyrazolo[1,5-a]pyridin-3-ylpyrimidin-4-yl]amino}piperidin-1-yl)-2-oxoethanol] | 1 | 1 | 2
COc1nc(-c2cnn3ccccc23)nc(O[C@@H]2CCCN(C(=O)CO)C2)c1F [Example 63, 2-{(3R)-3-[(5-Fluoro-6-methoxy-2-pyrazolo[1,5-a]pyridin-3-ylpyrimidin-4-yl)oxy]piperidin-1-yl}-2-oxoethanol] | 3 | 9 | 127
Cc1ccc(-c2cc(N[C@@H]3CCCN(C(=O)CO)C3)nc(-c3cnn4ccccc34)n2)cn1 [Example 99, 2-((3R)-3-{[6-(6-Methylpyridin-3-yl)-2-pyrazolo[1,5-a]pyridin-3-ylpyrimidin-4-yl]amino}piperidin-1-yl)-2-oxoethanol] | 9 | 7 | 2

— patent US10759793B2, “2-(pyrazolopyridin-3-yl)pyrimidine derivatives as JAK inhibitors” (ALMIRALL, S.A., priority 2015, dated 2020)
